Test results from patent US20220356170A1, “SREBP INHIBITOR COMPRISING A THIOPHENE CENTRAL RING” (Capulus Therapeutics, LLC, priority 2019, published 2022).
Like-named read-outs stand apart in the source and are kept apart here.

Experiments:
[1] = In vivo pharmacokinetics, intravenous; conditions: male C57 BL/6 mice, dose 2.00 mg/kg (Compound 1), 2.43 mg/kg (Compound 2); for Vd: male, C57 BL/6, mouse, iv
Method: (§1) The in vivo pharmacokinetic properties of Compound 1 by both intravenous and oral administration were evaluated in male C57 BL/6 mice. The in vivo pharmacokinetic properties of Compound 2 by both intravenous and oral administration were evaluated in male C57 BL/6 mice for comparison.
(§2) Animals were housed in cages with clean bedding. Certified rodent diet was provided. Water was available ad libitum. Environmental controls for the animal room were set to maintain a temperature of 22 to 25° C., humidity of 40-70% RH, and a 12-hour light /12-hour dark cycle. Normal healthy animals certified by the attending veterinarian were selected and acclimatized for minimum three days prior to initiation of study.
(§3) Procedure for Blood Withdrawal: Mice were anesthetized using gaseous anesthesia. Blood samples were collected through a capillary, guided in retro-orbital plexus. At each time point, blood samples from 3 mice of each respective group were collected. The blood samples were collected in pre-labeled tubes. 0.2 to 0.3 mL of blood were collected from each mouse. After collection of the blood samples at each time point, the samples were stored on ice prior to centrifugation. Blood samples were centrifuged within 15 minutes to separate plasma. Centrifugations was done at 1540 rcf (5000 rpm) at 4° C. for 10 minutes. The plasma was separated and transferred to pre-labeled micro-centrifuge tubes and promptly frozen at −80±10° C. until bioanalysis was performed. Samples were identified by test item, group, animal number, and collection time point.
(§4) To evaluate pharmacokinetic properties of intravenous delivery, nine male C57 BL/6 mice were administered 2.00 mg Compound 1/kg animal weight through the tail vein. The concentration of Compound 1 in the plasma of the animals was evaluated at 0.083, 0.25, 0.5, 1, 2, 4, 8, and 24 hr by taking blood samples from the mice. Compound 2 was similarly administered for comparison.

[2] = In vivo pharmacokinetics, oral; conditions: male C57 BL/6 mice
Method: as §1, §2, §3
as §4, with “oral” for “intravenous”, “10” for “2.00”, “by mouth.” for “through the tail vein.”, “at” for “at 0.083,”, “4, 6,” for “4,”, “samples.” for “samples from the mice.”

[3] = mouse, plasma, oral, dose 10.00 mg/kg (Compound 1), 12.01 mg/kg (Compound 2)

- AUCExtra [1]: 0.48%
- Vd ([1]; plasma, read-out: Vd): 4.55 L/kg
- Vd ([1]; plasma, read-out: Vss): 2.32 L/kg
- AUC(0-inf) ([1]; mouse, plasma): 2820 ng·h/mL
- AUC(0-t) ([1]; mouse, plasma): 2810 ng·h/mL
- C0 ([1]; mouse, plasma): 2670 ng/mL
- clearance ([1]; mouse, plasma): 14.3 mL/min/kg
- half-life ([1]; mouse, plasma): 3.67 h
- MRT last ([1]; mouse, plasma, read-out: MRT0-last): 2.56 h
- bioavailability ([2]; mouse, plasma, oral vs intravenous): 66.6%
- AUC(0-inf) [2, 3]: 9300 ng·h/mL
- AUC(0-t) [2, 3]: 8060 ng·h/mL
- Cmax [2, 3]: 2180 ng/mL
- Tmax [2, 3]: 0.25 h
- half-life [2, 3]: 9.46 h
- MRT last ([2]; mouse, plasma, oral, dose 10.00 mg/kg (Compound 1), 12.01 mg/kg (Compound 2), read-out: MRT0-last): 6.61 h
- AUCExtra ([2]; oral, dose 10.00 mg/kg (Compound 1), 12.01 mg/kg (Compound 2)): 13.38%
Compound: CC(C)(CO)c1cc(-c2csc(-c3ccc(C(=O)N4CCC(O)CC4)cc3Cl)c2)ccn1 [Compound 2, reference compound]
